Measurements published in publication PMC3849439, “Peptides Corresponding to the Predicted Heptad Repeat 2 Domain of the Feline Coronavirus Spike Protein Are Potent Inhibitors of Viral Infection” (PLoS ONE, 2013).
Entries after “also recorded” stand apart in the source; their conditions may differ.

Key:
fcwf-4 cells = experiment: MTT cytotoxicity assay; settings: 72 h at 37°C, 6.25-200 μM, absorbance 570 nm, triplicate
[1] = system: Feline coronavirus type II NTU156 strain; settings: for Inhibition of viral titer (%): highest concentration tested 20 μM, NTU156 MOI 0.1, fcwf-4 cells, triplicate wells; for IC50: NTU156 at MOI 0.1 preincubated with peptide 1 h, then on fcwf-4 cells 1 h, supernatant collected 48 h postinfection and titrated, CPE at 72 h, IC50 by interpolation
[2] = system: Feline coronavirus type II NTU156 strain; experiment: Combination of FP5 with human IFN-α, viral titer by plaque reduction assay; type: cell-based; settings: for Viral titer reduction, agent alone: supernatant collected after 48 h, triplicate

Row | Compound | CC50 (fcwf-4 cells) | Inhibition of viral titer (%) [1] [%] | IC50 [1] [µM] | Viral titer reduction, combination ([2]; 20 μM FP5 with 10 to 1000 IU IFN-α, or 10 μM FP5 with 1000 IU IFN-α, NTU156 MOI 0.1, fcwf-4 cells, 48 h) | Inhibitory effect of the combination (in words) ([2]; 20 μM FP5 with 10 to 1000 IU IFN-α, or 10 μM FP5 with 1000 IU IFN-α, two-way analysis of variance P < 0.05) | Inhibitory effect of the combination (in words) ([2]; 10 units of IFN-α combined with 20 μM FP5) | Viral titer reduction, agent alone ([2]; FP5 20 μM alone, NTU156 MOI 0.1, fcwf-4 cells) [LogPFU/ml] | Viral titer reduction, agent alone ([2]; IFN-α 1000 IU alone, preincubated with cells 24 h, NTU156 MOI 0.1, fcwf-4 cells) [LogPFU/ml]
1 | CC[C@H](C)[C@H](NC(=O)[C@H](CCC(=O)O)NC(=O)CNC(=O)[C@@H](NC(=O)[C@H](CC(C)C)NC(=O)[C@H](CC(N)=O)NC(=O)[C@H](CC(C)C)NC(=O)[C@H](Cc1ccc(O)cc1)NC(=O)[C@@H](NC(=O)[C@H](C)NC(=O)[C@H](CC(N)=O)NC(=O)[C@@H](N)Cc1ccccc1)[C@@H](C)O)[C@@H](C)O)C(=O)N[C@@H](CC(=O)O)C(=O)N[C@@H](CC(=O)O)C(=O)N[C@@H](CC(C)C)C(=O)N[C@@H](CCC(=O)O)C(=O)N[C@@H](Cc1ccccc1)C(=O)N[C@@H](CCCNC(=N)N)C(=O)N[C@@H](CO)C(=O)N[C@@H](CCC(=O)O)C(=O)N[C@@H](CCCCN)C(=O)N[C@@H](CC(C)C)C(=O)O [FP1] | ≧200 μM | 27 | – | – | – | – | – | –
2 | CC[C@H](C)[C@H](NC(=O)[C@H](CCC(=O)O)NC(=O)CNC(=O)[C@@H](NC(=O)[C@H](CC(C)C)NC(=O)[C@H](CC(N)=O)NC(=O)[C@H](CC(C)C)NC(=O)[C@H](Cc1ccc(O)cc1)NC(=O)[C@@H](NC(=O)[C@H](C)NC(=O)[C@H](CC(N)=O)NC(=O)[C@@H](N)Cc1ccccc1)[C@@H](C)O)[C@@H](C)O)C(=O)N[C@@H](CC(=O)O)C(=O)N[C@@H](CC(=O)O)C(=O)N[C@@H](CC(C)C)C(=O)N[C@@H](CCC(=O)O)C(=O)N[C@@H](Cc1ccccc1)C(=O)N[C@@H](CCCNC(=N)N)C(=O)N[C@@H](CO)C(=O)N[C@@H](CCC(=O)O)C(=O)N[C@@H](CCCCN)C(=O)N[C@@H](CC(C)C)C(=O)N[C@@H](Cc1c[nH]cn1)C(=O)N[C@@H](CC(N)=O)C(=O)N[C@H](C(=O)N[C@H](C(=O)N[C@H](C(=O)N[C@@H](CCC(=O)O)C(=O)N[C@@H](CC(C)C)C(=O)O)C(C)C)[C@@H](C)O)[C@@H](C)O [FP2] | ≧200 μM | 29 | – | – | – | – | – | –
3 | CC[C@H](C)[C@H](NC(=O)[C@H](CC(N)=O)NC(=O)[C@H](CC(=O)O)NC(=O)[C@@H](NC(=O)[C@H](CC(C)C)NC(=O)[C@@H](NC(=O)[C@H](C)NC(=O)[C@H](CC(C)C)NC(=O)[C@H](CCC(=O)O)NC(=O)[C@@H](NC(=O)[C@@H](NC(=O)[C@@H](NC(=O)[C@H](CC(N)=O)NC(=O)[C@H](Cc1c[nH]cn1)NC(=O)[C@H](CC(C)C)NC(=O)[C@H](CCCCN)NC(=O)[C@H](CCC(=O)O)NC(=O)[C@H](CO)NC(=O)[C@H](CCCNC(=N)N)NC(=O)[C@H](Cc1ccccc1)NC(=O)[C@H](CCC(=O)O)NC(=O)[C@H](CC(C)C)NC(=O)[C@H](CC(=O)O)NC(=O)[C@H](CC(=O)O)NC(=O)[C@@H](NC(=O)[C@H](CCC(=O)O)NC(=O)CNC(=O)[C@@H](NC(=O)[C@H](CC(C)C)NC(=O)[C@H](CC(N)=O)NC(=O)[C@H](CC(C)C)NC(=O)[C@H](Cc1ccc(O)cc1)NC(=O)[C@@H](NC(=O)[C@H](C)NC(=O)[C@H](CC(N)=O)NC(=O)[C@@H](N)Cc1ccccc1)[C@@H](C)O)[C@@H](C)O)[C@@H](C)CC)[C@@H](C)O)[C@@H](C)O)C(C)C)[C@@H](C)CC)[C@@H](C)CC)C(=O)O [FP3] | ≧200 μM | 72 | 14.2 | – | – | – | – | –
4 | CC[C@H](C)[C@H](NC(=O)[C@H](C)NC(=O)[C@H](CC(C)C)NC(=O)[C@H](CCC(=O)O)NC(=O)[C@@H](NC(=O)[C@@H](NC(=O)[C@@H](NC(=O)[C@H](CC(N)=O)NC(=O)[C@H](Cc1c[nH]cn1)NC(=O)[C@H](CC(C)C)NC(=O)[C@H](CCCCN)NC(=O)[C@H](CCC(=O)O)NC(=O)[C@H](CO)NC(=O)[C@H](CCCNC(=N)N)NC(=O)[C@H](Cc1ccccc1)NC(=O)[C@H](CCC(=O)O)NC(=O)[C@H](CC(C)C)NC(=O)[C@H](CC(=O)O)NC(=O)[C@H](CC(=O)O)NC(=O)[C@@H](NC(=O)[C@H](CCC(=O)O)NC(=O)CNC(=O)[C@@H](NC(=O)[C@H](CC(C)C)NC(=O)[C@H](CC(N)=O)NC(=O)[C@H](CC(C)C)NC(=O)[C@H](Cc1ccc(O)cc1)NC(=O)[C@@H](NC(=O)[C@H](C)NC(=O)[C@H](CC(N)=O)NC(=O)[C@@H](N)Cc1ccccc1)[C@@H](C)O)[C@@H](C)O)[C@@H](C)CC)[C@@H](C)O)[C@@H](C)O)C(C)C)C(=O)N[C@@H](CC(C)C)C(=O)N[C@H](C(=O)N[C@@H](CC(=O)O)C(=O)N[C@@H](CC(N)=O)C(=O)N[C@H](C(=O)N[C@@H](CC(N)=O)C(=O)N[C@@H](CC(N)=O)C(=O)N[C@H](C(=O)N[C@@H](CC(C)C)C(=O)N[C@H](C(=O)N[C@@H](CC(N)=O)C(=O)N[C@@H](CC(C)C)C(=O)O)C(C)C)[C@@H](C)O)[C@@H](C)CC)[C@@H](C)CC [FP4] | ≧200 μM | 93 | 1.8 | – | – | – | – | –
5 | CC[C@H](C)[C@H](NC(=O)[C@H](C)NC(=O)[C@H](CC(C)C)NC(=O)[C@H](CCC(=O)O)NC(=O)[C@@H](NC(=O)[C@@H](NC(=O)[C@@H](NC(=O)[C@H](CC(N)=O)NC(=O)[C@H](Cc1c[nH]cn1)NC(=O)[C@H](CC(C)C)NC(=O)[C@H](CCCCN)NC(=O)[C@H](CCC(=O)O)NC(=O)[C@H](CO)NC(=O)[C@H](CCCNC(=N)N)NC(=O)[C@H](Cc1ccccc1)NC(=O)[C@H](CCC(=O)O)NC(=O)[C@H](CC(C)C)NC(=O)[C@H](CC(=O)O)NC(=O)[C@H](CC(=O)O)NC(=O)[C@@H](NC(=O)[C@H](CCC(=O)O)NC(=O)CNC(=O)[C@@H](NC(=O)[C@H](CC(C)C)NC(=O)[C@H](CC(N)=O)NC(=O)[C@H](CC(C)C)NC(=O)[C@H](Cc1ccc(O)cc1)NC(=O)[C@@H](NC(=O)[C@H](C)NC(=O)[C@H](CC(N)=O)NC(=O)[C@@H](N)Cc1ccccc1)[C@@H](C)O)[C@@H](C)O)[C@@H](C)CC)[C@@H](C)O)[C@@H](C)O)C(C)C)C(=O)N[C@@H](CC(C)C)C(=O)N[C@H](C(=O)N[C@@H](CC(=O)O)C(=O)N[C@@H](CC(N)=O)C(=O)N[C@H](C(=O)N[C@@H](CC(N)=O)C(=O)N[C@@H](CC(N)=O)C(=O)N[C@H](C(=O)N[C@@H](CC(C)C)C(=O)N[C@H](C(=O)N[C@@H](CC(N)=O)C(=O)N[C@@H](CC(C)C)C(=O)N[C@@H](CCC(=O)O)C(=O)N[C@@H](Cc1c[nH]c2ccccc12)C(=O)N[C@@H](CC(C)C)C(=O)N[C@@H](CC(N)=O)C(=O)N[C@@H](CCCNC(=N)N)C(=O)N[C@H](C(=O)N[C@@H](CCC(=O)O)C(=O)O)[C@@H](C)CC)C(C)C)[C@@H](C)O)[C@@H](C)CC)[C@@H](C)CC [FP5] | ≧200 μM | – | 1.33 | up to 4.08 LogPFU/ml | complete inhibitory effect; also recorded: synergetic effects | complete inhibition | 1.81 | –
6 | IFN-α | – | – | – | – | – | – | – | 1.46
